Values after ≈ are worked out from the molar mass of the structure shown.
Assays:
Bacillus sp. [1] = assay: Minimum inhibitory concentration against Bacillus sphaericus (Gram-positive) was determined by broth dilution method; assay type: functional, Lysinibacillus sphaericus; details: Bacillus sp. (in: firmicutes)
Bacillus subtilis = assay: Minimum inhibitory concentration against Bacillus subtilis (Gram-positive) was determined by broth dilution method; assay type: functional
Klebsiella aerogenes = assay: Minimum inhibitory concentration against Klebsiella aerogenes (Gram-negative) in broth; assay type: functional
[2] = Minimum inhibitory concentration against Chromobacterium violaceum (Gram-negative) was determined by broth dilution method; assay type: functional
Staphylococcus aureus = assay: Minimum inhibitory concentration against Staphylococcus aureus (Gram-positive) was determined by broth dilution method; assay type: functional
Bacillus sp. [3] = assay: Minimum inhibitory concentration against Bacillus sphaericus (Gram-positive) in broth; assay type: functional, Lysinibacillus sphaericus; details: Bacillus sp. (in: firmicutes)
Pseudomonas aeruginosa = assay: Minimum inhibitory concentration against Pseudomonas aeruginosa (Gram-negative) by broth dilution method; assay type: functional

SMILES	MIC (Bacillus sp. [1])	MIC (Bacillus subtilis)	MIC (Klebsiella aerogenes)	MIC [2]	MIC (Staphylococcus aureus)	MIC (Bacillus sp. [3])	MIC (Pseudomonas aeruginosa)
Cc1ccc(CNc2nc(NCc3ccc(C)cc3)nc(NCc3ccc(C)cc3)n2)cc1	50 µg/mL (≈ 114 µM)						
c1ccc(COc2nc(OCc3ccccc3)nc(OCc3ccccc3)n2)cc1	25 µg/mL (≈ 62.6 µM)	25 µg/mL (≈ 62.6 µM)		25 µg/mL (≈ 62.6 µM)	25 µg/mL (≈ 62.6 µM)		
Clc1ccc(CNc2nc(NCc3ccc(Cl)cc3)nc(NCc3ccc(Cl)cc3)n2)cc1	25 µg/mL (≈ 50 µM)			25 µg/mL (≈ 50 µM)			
Fc1ccc(CNc2nc(NCc3ccc(F)cc3)nc(NCc3ccc(F)cc3)n2)cc1						50 µg/mL (≈ 111 µM)	
COc1ccc(COc2nc(OCc3ccc(OC)cc3)nc(OCc3ccc(OC)cc3)n2)cc1	25 µg/mL (≈ 51.1 µM)	25 µg/mL (≈ 51.1 µM)	25 µg/mL (≈ 51.1 µM)	6.25 µg/mL (≈ 12.8 µM)	25 µg/mL (≈ 51.1 µM)		
Clc1ccc(Cc2nc(Cc3ccc(Cl)cc3)nc(Cc3ccc(Cl)cc3)n2)cc1	25 µg/mL (≈ 55 µM)	25 µg/mL (≈ 55 µM)	25 µg/mL (≈ 55 µM)	25 µg/mL (≈ 55 µM)	25 µg/mL (≈ 55 µM)		
CC1(C)S[C@@H]2[C@H](NC(=O)Cc3ccccc3)C(=O)N2C1C(=O)O (single isomer, unassigned) [PENICILLIN G]	3.12 µg/mL (≈ 9.35 µM)	1.56 µg/mL (≈ 4.67 µM)	6.25 µg/mL (≈ 18.7 µM)	12.5 µg/mL (≈ 37.4 µM)	1.56 µg/mL (≈ 4.67 µM)		12.5 µg/mL (≈ 37.4 µM)
CN[C@@H]1[C@H](O[C@H]2[C@H](O[C@H]3[C@H](O)[C@@H](O)[C@H](N=C(N)N)[C@@H](O)[C@@H]3N=C(N)N)O[C@@H](C)[C@]2(O)C=O)O[C@@H](CO)[C@H](O)[C@H]1O [STREPTOMYCIN]	12.5 µg/mL (≈ 21.5 µM)	6.25 µg/mL (≈ 10.7 µM)	1.56 µg/mL (≈ 2.69 µM)	3.12 µg/mL (≈ 5.37 µM)	6.25 µg/mL (≈ 10.7 µM)		3.12 µg/mL (≈ 5.37 µM)

Second part, led by results:

MIC (Bacillus sp. [1])	MIC (Bacillus subtilis)	MIC (Klebsiella aerogenes)	MIC [2]	MIC (Staphylococcus aureus)	MIC (Bacillus sp. [3])	SMILES	MIC (Pseudomonas aeruginosa)
25 µg/mL (≈ 63.1 µM)	25 µg/mL (≈ 63.1 µM)	25 µg/mL (≈ 63.1 µM)	25 µg/mL (≈ 63.1 µM)	25 µg/mL (≈ 63.1 µM)		c1ccc(CNc2nc(NCc3ccccc3)nc(NCc3ccccc3)n2)cc1	
6.25 µg/mL (≈ 17.8 µM)	12.5 µg/mL (≈ 35.6 µM)	6.25 µg/mL (≈ 17.8 µM)	6.25 µg/mL (≈ 17.8 µM)	12.5 µg/mL (≈ 35.6 µM)		c1ccc(Cc2nc(Cc3ccccc3)nc(Cc3ccccc3)n2)cc1	
12.5 µg/mL (≈ 25.7 µM)	25 µg/mL (≈ 51.4 µM)	25 µg/mL (≈ 51.4 µM)	25 µg/mL (≈ 51.4 µM)	25 µg/mL (≈ 51.4 µM)		COc1ccc(CNc2nc(NCc3ccc(OC)cc3)nc(NCc3ccc(OC)cc3)n2)cc1	
12.5 µg/mL (≈ 28.3 µM)	50 µg/mL (≈ 113 µM)	25 µg/mL (≈ 56.6 µM)	25 µg/mL (≈ 56.6 µM)	25 µg/mL (≈ 56.6 µM)		COc1ccc(Cc2nc(Cc3ccc(OC)cc3)nc(Cc3ccc(OC)cc3)n2)cc1	
12.5 µg/mL (≈ 27.6 µM)	25 µg/mL (≈ 55.1 µM)	25 µg/mL (≈ 55.1 µM)	12.5 µg/mL (≈ 27.6 µM)	25 µg/mL (≈ 55.1 µM)		Fc1ccc(COc2nc(OCc3ccc(F)cc3)nc(OCc3ccc(F)cc3)n2)cc1	
12.5 µg/mL (≈ 24.9 µM)	12.5 µg/mL (≈ 24.9 µM)	25 µg/mL (≈ 49.7 µM)	25 µg/mL (≈ 49.7 µM)	12.5 µg/mL (≈ 24.9 µM)		Clc1ccc(COc2nc(OCc3ccc(Cl)cc3)nc(OCc3ccc(Cl)cc3)n2)cc1	

From ChEMBL document CHEMBL1141068, “Synthesis and antibacterial activity of 2,4,6-tri substituted s-triazines” (2005)
